From PubChem BioAssay AID248 (DTP/NCI, 2004)
Values joined by “and” are separate entries in the source; they are usually repeats but may differ in a detail not shown here. Equal entries are not always repeated. Toxic doses and inconclusive results are not listed. No stated cut-off is given here; in the data, active means T/C of 150% or more; inactive means T/C below 125%.

Tested on: L1210 leukemia ip in BDF1 mice, survival T/C
Experiment: NCI In Vivo Anticancer Drug Screen. Data for tumor model L1210 Leukemia (intraperitoneal) in B6D2F1 (BDF1) mice
Details: endpoint: mean survival time, higher = longer survival
Procedure, shortened: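 In this screen, tumor-bearing mice given compound are compared to those given vehicle, and their survival values are reported as a treated-to-control quotient.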

[1] = dose: 100.0 mg/kg/injection, schedule: Q04DX003 (ip), vehicle: saline with Tween-80
[2] = dose: 200.0 mg/kg/injection, schedule: Q04DX003 (ip), vehicle: saline with Tween-80
[3] = dose: 400.0 mg/kg/injection, schedule: Q04DX003 (ip), vehicle: saline with Tween-80
[4] = dose: 100.0 mg/kg/injection, schedule: Q01DX009 (ip), vehicle: Klucel (hydroxypropylcellulose) (HPC)
[5] = dose: 200.0 mg/kg/injection, schedule: Q01DX009 (ip), vehicle: Klucel (hydroxypropylcellulose) (HPC)
[6] = dose: 400.0 mg/kg/injection, schedule: Q01DX009 (ip), vehicle: Klucel (hydroxypropylcellulose) (HPC)
[7] = dose: 50.0 mg/kg/injection, schedule: Q01DX009 (ip), vehicle: saline with Tween-80
[8] = dose: 100.0 mg/kg/injection, schedule: Q01DX009 (ip), vehicle: saline with Tween-80
[9] = dose: 200.0 mg/kg/injection, schedule: Q01DX009 (ip), vehicle: saline with Tween-80
[10] = dose: 400.0 mg/kg/injection, schedule: Q01DX009 (ip), vehicle: saline with Tween-80
[11] = dose: 100.0 mg/kg/injection, schedule: Q01DX001 (ip), vehicle: saline
[12] = dose: 200.0 mg/kg/injection, schedule: Q01DX001 (ip), vehicle: saline
[13] = dose: 400.0 mg/kg/injection, schedule: Q01DX001 (ip), vehicle: saline
[14] = dose: 100.0 mg/kg/injection, schedule: Q04DX003 (ip), vehicle: Klucel (hydroxypropylcellulose) (HPC)
[15] = dose: 200.0 mg/kg/injection, schedule: Q04DX003 (ip), vehicle: Klucel (hydroxypropylcellulose) (HPC)

Measured: T/C

CCOC(=O)C1=CC=CC1=O
inactive: [1] 102 % of control | [2] 95 % of control | [3] 91 % of control

Cc1nc2cc(Cl)cc([N+](=O)[O-])c2nc1C
inactive: [4] 91 % of control | [5] 93 % of control | [6] 91 % of control

COc1ccc(/C=N\NC(=O)CNC(=O)Nc2cccc(Cl)c2)cc1OC
inactive: [7] 88 % of control | [8] 92 % of control | [9] 88 % of control

CC(=O)Nc1ccc(S(=O)(=O)Nc2cc(Cl)ccc2Cl)cc1
inactive: [8] 103 % of control | [9] 102 % of control | [10] 97 % of control

N\C([S-])=N/N=C\C(=N/N=C(\N)[S-])C(O)C(O)C(O)CO.[Pt+2] (stereo unspecified)
inactive: dose: 50.0 mg/kg/injection, schedule: Q01DX009 (ip), vehicle: saline 91 % of control | [1] 92 % of control | dose: 200.0 mg/kg/injection, schedule: Q01DX009 (ip), vehicle: saline 100 % of control | [2] 89 % of control | [3] 96 % of control

O=C(O)c1ccccc1OCc1cc(=O)[nH]c(=O)[nH]1
inactive: dose: 100.0 mg/kg/injection, schedule: Q04DX003 (ip), vehicle: saline 95 % of control | dose: 200.0 mg/kg/injection, schedule: Q04DX003 (ip), vehicle: saline 95 % of control | dose: 400.0 mg/kg/injection, schedule: Q04DX003 (ip), vehicle: saline 98 % of control

S=C=NCc1cccc2ccccc12
inactive: dose: 2.5 mg/kg/injection, schedule: Q01DX009 (ip), vehicle: carboxymethylcellulose (CMC) 90 % of control | dose: 5.0 mg/kg/injection, schedule: Q01DX009 (ip), vehicle: carboxymethylcellulose (CMC) 94 % of control | dose: 5.0 mg/kg/injection, schedule: Q04DX003 (ip), vehicle: carboxymethylcellulose (CMC) 101 % of control | dose: 10.0 mg/kg/injection, schedule: Q01DX001 (ip), vehicle: carboxymethylcellulose (CMC) 93 % of control | dose: 10.0 mg/kg/injection, schedule: Q01DX009 (ip), vehicle: carboxymethylcellulose (CMC) 105 % of control | dose: 10.0 mg/kg/injection, schedule: Q04DX003 (ip), vehicle: carboxymethylcellulose (CMC) 97 % of control | dose: 20.0 mg/kg/injection, schedule: Q01DX001 (ip), vehicle: carboxymethylcellulose (CMC) 87 % of control | dose: 20.0 mg/kg/injection, schedule: Q04DX003 (ip), vehicle: carboxymethylcellulose (CMC) 97 % of control

NC(=S)N/N=C/c1ccc(C(F)(F)F)cn1
inactive: dose: 13.3 mg/kg/injection, schedule: Q04DX003 (ip), vehicle: saline with Tween-80 108 % of control | dose: 20.0 mg/kg/injection, schedule: Q04DX003 (ip), vehicle: saline with Tween-80 103 % of control | dose: 30.0 mg/kg/injection, schedule: Q04DX003 (ip), vehicle: saline with Tween-80 113 % of control | dose: 45.0 mg/kg/injection, schedule: Q04DX003 (ip), vehicle: saline with Tween-80 112 % of control | dose: 67.5 mg/kg/injection, schedule: Q04DX003 (ip), vehicle: saline with Tween-80 111 % of control

O=C(O)c1ccccc1-c1c2ccc(=O)c(O)c-2oc2c(O)c(O)ccc12
inactive: dose: 10.0 mg/kg/injection, schedule: Q04DX003 (ip), vehicle: other 99 % of control | dose: 20.0 mg/kg/injection, schedule: Q04DX003 (ip), vehicle: other 94 % of control | dose: 40.0 mg/kg/injection, schedule: Q04DX003 (ip), vehicle: other 98 % of control | dose: 50.0 mg/kg/injection, schedule: Q04DX003 (ip), vehicle: other 112 % of control | dose: 80.0 mg/kg/injection, schedule: Q04DX003 (ip), vehicle: other 89 % of control | dose: 100.0 mg/kg/injection, schedule: Q04DX003 (ip), vehicle: other 104 % of control | dose: 200.0 mg/kg/injection, schedule: Q04DX003 (ip), vehicle: other 124 % of control

O=C1NCC(CCl)O1 (stereo unspecified)
inactive: [11] 101 % of control | [12] 91 % of control | [13] 101 % of control

CC=NC(C)(C)C
inactive: dose: 12.5 mg/kg/injection, schedule: Q01DX009 (ip), vehicle: saline with Tween-80 91 % of control | dose: 25.0 mg/kg/injection, schedule: Q01DX009 (ip), vehicle: saline with Tween-80 94 % of control | [7] 95 % of control and 91 % of control

O=C(Cc1ccccc1)C(c1ccccc1)C(c1ccccc1)c1ccccc1 (stereo unspecified)
inactive: dose: 100.0 mg/kg/injection, schedule: Q04DX002 (ip), vehicle: saline with Tween-80 96 % of control | dose: 200.0 mg/kg/injection, schedule: Q04DX002 (ip), vehicle: saline with Tween-80 111 % of control | dose: 400.0 mg/kg/injection, schedule: Q04DX002 (ip), vehicle: saline with Tween-80 107 % of control

Cc1nc(N)[nH]c(=O)c1CCCNS(=O)(=O)c1ccc(N)cc1
inactive: dose: 50.0 mg/kg/injection, schedule: Q01DX001 (ip), vehicle: saline 100 % of control | [11] 97 % of control | [12] 100 % of control | [13] 94 % of control

COc1ccc(NC(=O)Oc2ccc(NC(C)=O)cc2)c(OC)c1
inactive: [4] 95 % of control | [5] 97 % of control | [6] 92 % of control

CS(=O)(=O)OC1C2(c3ccccc3)C=CCC1(c1ccccc1)C(c1ccccc1)=C2c1ccccc1 (stereo unspecified)
inactive: dose: 100.0 mg/kg/injection, schedule: Q01DX001 (ip), vehicle: Klucel (hydroxypropylcellulose) (HPC) 98 % of control | dose: 200.0 mg/kg/injection, schedule: Q01DX001 (ip), vehicle: Klucel (hydroxypropylcellulose) (HPC) 101 % of control | dose: 400.0 mg/kg/injection, schedule: Q01DX001 (ip), vehicle: Klucel (hydroxypropylcellulose) (HPC) 98 % of control

O=C(Nc1ccccc1Cl)OCCOc1ccccc1
inactive: [4] 97 % of control | [5] 97 % of control | [6] 94 % of control

COc1cc(C=Nc2ccc(-c3csc(COc4ccccc4)n3)c(Cl)c2)ccc1N(CCCl)CCCl
inactive: dose: 5.0 mg/kg/injection, schedule: Q01DX015 (ip), vehicle: carboxymethylcellulose (CMC) 111 % of control | dose: 10.0 mg/kg/injection, schedule: Q01DX015 (ip), vehicle: carboxymethylcellulose (CMC) 113 % of control | dose: 20.0 mg/kg/injection, schedule: Q01DX015 (ip), vehicle: carboxymethylcellulose (CMC) 104 % of control | dose: 44.0 mg/kg/injection, schedule: Q01DX015 (ip), vehicle: carboxymethylcellulose (CMC) 97 % of control | dose: 200.0 mg/kg/injection, schedule: Q01DX001 (sc), vehicle: carboxymethylcellulose (CMC) 118 % of control

NC(=O)c1ccccc1C(Cl)(Cl)Cl
inactive: [7] 88 % of control | [8] 89 % of control | [1] 104 % of control | [2] 96 % of control

CCCCCCCCCCCCCCCCS(=O)(=O)N/N=C/c1ccc2c(c1)OCO2
inactive: dose: 100.0 mg/kg/injection, schedule: Q01DX001 (ip), vehicle: carboxymethylcellulose (CMC) 101 % of control | dose: 200.0 mg/kg/injection, schedule: Q01DX001 (ip), vehicle: carboxymethylcellulose (CMC) 98 % of control | dose: 400.0 mg/kg/injection, schedule: Q01DX001 (ip), vehicle: carboxymethylcellulose (CMC) 104 % of control

COc1cc(/C=N/N2C(=O)CSC2=S)ccc1OCc1ccccc1
inactive: [8] 89 % of control | [1] 93 % of control | [9] 91 % of control | [2] 93 % of control | [3] 86 % of control

[O-]/[N+](=C\C=C\c1ccccc1)c1ccccc1
inactive: [4] 100 % of control | [14] 103 % of control | [5] 90 % of control | [15] 95 % of control | [6] 89 % of control | dose: 400.0 mg/kg/injection, schedule: Q04DX003 (ip), vehicle: Klucel (hydroxypropylcellulose) (HPC) 86 % of control

CCCCC/C(=N\OC(=O)NC)C(F)(F)F
inactive: dose: 5.0 mg/kg/injection, schedule: Q01DX001 (ip), vehicle: saline 96 % of control | dose: 10.0 mg/kg/injection, schedule: Q01DX001 (ip), vehicle: saline 104 % of control | dose: 20.0 mg/kg/injection, schedule: Q01DX001 (ip), vehicle: saline 100 % of control | dose: 40.0 mg/kg/injection, schedule: Q01DX001 (ip), vehicle: saline 98 % of control | dose: 80.0 mg/kg/injection, schedule: Q01DX001 (ip), vehicle: saline 94 % of control

Cc1ccc(NC(=O)Nc2ccccc2C(F)(F)F)cc1NC(=O)Nc1ccccc1C(F)(F)F
inactive: [8] 92 % of control | [9] 90 % of control | [10] 92 % of control

CCOC(=O)C1(C(=O)OCC)CCC2Nc3ccccc3C(=O)N21 (stereo unspecified)
inactive: dose: 50.0 mg/kg/injection, schedule: Q04DX003 (ip), vehicle: Klucel (hydroxypropylcellulose) (HPC) 99 % of control | [14] 101 % of control | [15] 87 % of control
